Laboratory results taken from US4753953A, “Pyridonecarboxylic acid derivatives and antibacterial pharmaceutical compositions thereof” (priority 1985, dated 1988).
≈ marks a conversion by molar mass, not a printed value. Where two headings read alike, the source gives them in different places.

Assays:
Experiment in all cases: MIC, in vitro antibacterial activity (standard strains)
Type in all cases: cell-based
[1] = tested on: Propionibacterium acens 11828; conditions: Propionibacterium, 11828; 10^6 cells/ml; Gram +; read-out: MIC
[2] = tested on: Bacillus subtilis PCI 219; conditions: Bacillus subtilis, PCI219; 10^6 cells/ml; Gram +; read-out: MIC
[3] = tested on: Bacteroides fragilis GM 7000; conditions: Bacteroides fragilis, GM7000; 10^6 cells/ml; Gram -; read-out: MIC
Shigella sonnei IID 969 = conditions: Shigella sonnei, IID969; 10^6 cells/ml; Gram -; read-out: MIC
Protocol: Minimal inhibitory concentrations (MICs) were determined in accordance with the method recommended by Japan Society of Chemotherapy.

P. mirabilis IID 994 = conditions: Proteus mirabilis, IID994; 10^6 cells/ml; Gram -; read-out: MIC
S. epidermidis IID 866 = conditions: Staphylococcus epidermidis, IID866; 10^6 cells/ml; Gram +; read-out: MIC
B. vulgatus KYA 29327 = conditions: Phocaeicola vulgatus, KYA29327; 10^6 cells/ml; Gram -; read-out: MIC
E. limosum KYA 8486 = conditions: Eubacterium limosum, KYA8486; 10^6 cells/ml; Gram +; read-out: MIC
[4] = tested on: Acinetobacter anitratus IID 876; conditions: Acinetobacter calcoaceticus, IID876; 10^6 cells/ml; Gram -; read-out: MIC
C. ramosum = conditions: Thomasclavelia ramosa; 10^6 cells/ml; Gram +; read-out: MIC
P. maltophilia GIFU 2491 = conditions: Stenotrophomonas maltophilia, GIFU2491
[5] = tested on: Serratia marcescens IID 618; conditions: Serratia marcescens, IID618; 10^6 cells/ml; Gram -; read-out: MIC
[6] = tested on: Klebsiella pneumoniae KY(GN)6445; conditions: Klebsiella pneumoniae
[7] = tested on: Escherichia coli NIHJ JC-2; conditions: Escherichia coli, NIHJJC2
F. varium KYA 8501 = conditions: Fusobacterium varium, KYA8501; 10^6 cells/ml; Gram -; read-out: MIC
[8] = tested on: Pseudomonas aeruginosa V-1; conditions: Pseudomonas aeruginosa, V1
[9] = tested on: Proteus vulgaris IFO 3167; conditions: Proteus vulgaris, IFO3167
[10] = 10^6 cells/ml, Gram -, read-out: MIC

| Structure (SMILES) | MIC [1] [µg/mL] | MIC [2] [µg/mL] | MIC [3] [µg/mL] | MIC (Shigella sonnei IID 969) [µg/mL] | MIC (P. mirabilis IID 994) [µg/mL] | MIC (S. epidermidis IID 866) [µg/mL] | MIC (B. vulgatus KYA 29327) [µg/mL] | MIC (E. limosum KYA 8486) [µg/mL] | MIC [4] [µg/mL] | MIC (C. ramosum) [µg/mL] | MIC (P. maltophilia GIFU 2491; [10]) [µg/mL] | MIC [5] [µg/mL] | MIC [6, 10] [µg/mL] | MIC [7, 10] [µg/mL] | MIC (F. varium KYA 8501) [µg/mL] | MIC [8, 10] [µg/mL] | MIC [9, 10] [µg/mL] | MIC [8] [µg/mL] | also measured |
| --- | --- | --- | --- | --- | --- | --- | --- | --- | --- | --- | --- | --- | --- | --- | --- | --- | --- | --- | --- |
| C[C@H]1CN(c2c(F)cc3c(=O)c(C(=O)O)cn4c3c2OC[C@@H]4C)C[C@H]1N.Cl (mixture of isomers) [Example 31, (3S)-10-(cis-3-Amino-4-methyl-1-pyrrolidinyl)-9-fluoro-2,3-dihydro-3-methyl-7-oxo-7H-pyrido[1,2,3-de][1,4]benzoxazine-6-carboxylic acid hydrochloride] | 6.25 | 0.05 | 1.56 | 0.05 | 0.1 | 0.2 | 3.13 | 3.13 | 1.56 | 6.25 | 0.78 | 0.1 | 0.05 | 0.025 | 3.13 | 0.39 | 0.1 |  |  |
| C[C@@H]1CN(c2c(F)cc3c(=O)c(C(=O)O)cn(C4CC4)c3c2F)C[C@H]1N (relative stereo) [Example 18, 7-(trans-3-Amino-4-methyl-1-pyrrolidinyl)-1-cyclopropyl-6,8-difluoro-1,4-dihydro-4-oxo-3-quinolinecarboxylic acid] | 1.56 (≈ 4.29 µM) | 0.025 (≈ 0.0688 µM) | 0.2 (≈ 0.55 µM) | 0.0125 (≈ 0.0344 µM) | 0.025 (≈ 0.0688 µM) | 0.05 (≈ 0.138 µM) | 0.39 (≈ 1.07 µM) |  | 0.025 (≈ 0.0688 µM) | 0.78 (≈ 2.15 µM) |  | 0.05 (≈ 0.138 µM) |  | 0.0063 (≈ 0.0173 µM) | 1.56 (≈ 4.29 µM) | 0.1 (≈ 0.275 µM) |  |  | MIC (P. maltophilia GIFU 2491): 0.05 µg/mL (≈ 0.138 µM); MIC [6]: 0.0125 µg/mL (≈ 0.0344 µM); MIC [9]: 0.0125 µg/mL (≈ 0.0344 µM) |
| C[C@H]1CN(c2c(F)cc3c(=O)c(C(=O)O)cn(C4CC4)c3c2F)C[C@H]1N.Cl (relative stereo) [Example 20, 7-(cis-3-Amino-4-methyl-1-pyrrolidinyl)-1-cyclopropyl-6,8-difluoro-1,4-dihydro-4-oxo-3-quinolinecarboxylic acid hydrochloride] | 3.13 | 0.025 | 0.39 | 0.0125 | 0.05 | 0.05 | 0.39 |  | 0.05 | 1.56 | 0.39 | 0.05 | 0.025 |  | 1.56 | 0.2 | 0.025 |  | MIC [7]: 0.0125 µg/mL |
| C[C@H]1CN(c2c(F)cc3c(=O)c(C(=O)O)cn(C4CC4)c3c2Br)C[C@H]1N (relative stereo) [Example 21, 7-(cis-3-Amino-4-methyl-1-pyrrolidinyl)-8-bromo-1-cyclopropyl-6-fluoro-1,4-dihydro-4-oxo-3-quinolinecarboxylic acid] | 1.56 (≈ 3.68 µM) | 0.0125 (≈ 0.0295 µM) | 0.1 (≈ 0.236 µM) | 0.0063 (≈ 0.0148 µM) | 0.025 (≈ 0.0589 µM) | 0.05 (≈ 0.118 µM) | 0.1 (≈ 0.236 µM) |  | 0.025 (≈ 0.0589 µM) | 0.78 (≈ 1.84 µM) | 0.05 (≈ 0.118 µM) | 0.025 (≈ 0.0589 µM) | 0.0125 (≈ 0.0295 µM) | 0.0063 (≈ 0.0148 µM) | 0.78 (≈ 1.84 µM) | 0.39 (≈ 0.919 µM) | 0.0125 (≈ 0.0295 µM) |  |  |
| CCn1cc(C(=O)O)c(=O)c2cc(F)c(N3C[C@@H](N)[C@@H](C)C3)c(F)c21 (relative stereo) [Example 22, 7-(cis-3-Amino-4-methyl-1-pyrrolidinyl)-1-ethyl-6,8-difluoro-1,4-dihydro-4-oxo-3-quinolinecarboxylic acid] | 25 (≈ 71.2 µM) | 0.05 (≈ 0.142 µM) | 3.13 (≈ 8.91 µM) | 0.1 (≈ 0.285 µM) | 0.1 (≈ 0.285 µM) | 0.2 (≈ 0.569 µM) | 3.13 (≈ 8.91 µM) | 6.25 (≈ 17.8 µM) | 0.39 (≈ 1.11 µM) | 6.25 (≈ 17.8 µM) | 0.78 (≈ 2.22 µM) | 0.1 (≈ 0.285 µM) | 0.05 (≈ 0.142 µM) | 0.05 (≈ 0.142 µM) | 6.25 (≈ 17.8 µM) | 0.39 (≈ 1.11 µM) | 0.05 (≈ 0.142 µM) |  |  |
| CCn1cc(C(=O)O)c(=O)c2cc(F)c(N3C[C@@H](N)[C@@H](C)C3)c(Cl)c21 (relative stereo) [Example 23, 7-(cis-3-Amino-4-methyl-1-pyrrolidinyl)-8-chloro-1-ethyl-6-fluoro-1,4-dihydro-4-oxo-3-quinolinecarboxylic acid] | 12.5 (≈ 34 µM) | 0.05 (≈ 0.136 µM) | 0.78 (≈ 2.12 µM) | 0.05 (≈ 0.136 µM) | 0.05 (≈ 0.136 µM) | 0.2 (≈ 0.544 µM) | 1.56 (≈ 4.24 µM) | 6.25 (≈ 17 µM) | 0.39 (≈ 1.06 µM) | 6.25 (≈ 17 µM) | 0.39 (≈ 1.06 µM) | 0.05 (≈ 0.136 µM) | 0.05 (≈ 0.136 µM) | 0.025 (≈ 0.068 µM) | 6.25 (≈ 17 µM) | 0.39 (≈ 1.06 µM) | 0.05 (≈ 0.136 µM) |  |  |
| C[C@H]1CN(c2c(F)cc3c(=O)c(C(=O)O)cn(CCF)c3c2F)C[C@H]1N (relative stereo) [Example 25, 7-(cis-b 3-Amino-4-methyl-1-pyrrolidinyl)-6,8-difluoro-1-(2-fluoroethyl)-1,4-dihydro-4-oxo-3-quinolinecarboxylic acid] | 25 (≈ 67.7 µM) | 0.1 (≈ 0.271 µM) | 6.25 (≈ 16.9 µM) | 0.78 (≈ 2.11 µM) | 0.1 (≈ 0.271 µM) | 0.39 (≈ 1.06 µM) | 6.25 (≈ 16.9 µM) | 6.25 (≈ 16.9 µM) | 1.56 (≈ 4.22 µM) | 25 (≈ 67.7 µM) | 1.56 (≈ 4.22 µM) | 0.1 (≈ 0.271 µM) | 0.1 (≈ 0.271 µM) | 0.05 (≈ 0.135 µM) | 6.25 (≈ 16.9 µM) |  | 0.05 (≈ 0.135 µM) | 0.78 (≈ 2.11 µM) |  |
| C[C@H]1CN(c2c(F)cc3c(=O)c(C(=O)O)cn(CCF)c3c2Cl)C[C@H]1N (relative stereo) [Example 27, 7-(cis-3-Amino-4-methyl-1-pyrrolidinyl)-8-chloro-6-fluoro-1-(2-fluoroethyl)-1,4-dihydro-4-oxo-3-quinolinecarboxylic acid] | 12.5 (≈ 32.4 µM) | 0.1 (≈ 0.259 µM) | 1.56 (≈ 4.04 µM) | 0.78 (≈ 2.02 µM) | 0.1 (≈ 0.259 µM) | 0.2 (≈ 0.518 µM) | 3.13 (≈ 8.11 µM) | 6.25 (≈ 16.2 µM) | 1.56 (≈ 4.04 µM) | 25 (≈ 64.8 µM) | 1.56 (≈ 4.04 µM) | 0.1 (≈ 0.259 µM) | 0.1 (≈ 0.259 µM) | 0.05 (≈ 0.13 µM) | 6.25 (≈ 16.2 µM) |  | 0.05 (≈ 0.13 µM) | 0.39 (≈ 1.01 µM) |  |
| CC1COc2c(N3C[C@@H](N)[C@@H](C)C3)c(F)cc3c(=O)c(C(=O)O)cn1c23.Cl (relative stereo) [Example 29, 10-(cis-3-Amino-4-methyl-1-pyrrolidinyl)-9-fluoro-2,3-dihydro-3-methyl-7-oxo-7H-pyrido[1,2,3-de][1,4]benzoxazine-6-carboxylic acid hydrochloride] | 12.5 | 0.05 | 3.13 | 0.05 | 0.1 | 0.2 | 6.25 | 6.25 | 1.56 | 12.5 | 1.56 | 0.1 | 0.05 | 0.025 | 6.25 | 0.39 | 0.05 |  |  |
| C[C@@H]1CN(c2c(F)cc3c(=O)c(C(=O)O)cn(C4CC4)c3c2Br)C[C@H]1N (relative stereo) [Example 32, 7-(trans-3-Amino-4-methyl-1-pyrrolidinyl)-8-bromo-1-cyclopropyl-6-fluoro-1,4-dihydro-4-oxo-3-quinolinecarboxylic acid] | 1.56 (≈ 3.68 µM) | 0.0125 (≈ 0.0295 µM) | 0.1 (≈ 0.236 µM) | 0.0063 (≈ 0.0148 µM) | 0.05 (≈ 0.118 µM) | 0.05 (≈ 0.118 µM) | 0.1 (≈ 0.236 µM) | 0.1 (≈ 0.236 µM) | 0.025 (≈ 0.0589 µM) | 0.78 (≈ 1.84 µM) | 0.05 (≈ 0.118 µM) | 0.05 (≈ 0.118 µM) | 0.025 (≈ 0.0589 µM) | 0.0063 (≈ 0.0148 µM) | 0.78 (≈ 1.84 µM) |  | 0.0125 (≈ 0.0295 µM) | 0.2 (≈ 0.471 µM) |  |
